Test results taken from patent US12543734B2, “Herbicidal compositions comprising dimethenamid” (BASF SE, priority 2024, dated 2026).

Assays:
Assay type in all cases: in vivo
[1] = system: Glycine max (GLXMA); experiment: Example 3 post-emergence field trial, volunteer crop plants (1% MSO); conditions: height 6-15 cm, 20 DAT, A-1 30 g ai/ha, B-2 735 g ai/ha
Description: (§1) In the examples below, using the method of S. R. Colby (1967) “Calculating synergistic and antagonistic responses of herbicide combinations”, Weeds 15, p. 22ff., the value E, which is expected if the activity of the individual active compounds is only additive, was calculated:
(§2) [formula] • where • X=percent activity using active herbicide A at an application rate a; • Y=percent activity using active herbicide B (e.g. DMTA-p) at an application rate b; • E=expected activity (in %) by A+B at application rates a+b.
(§3) If the value found experimentally is higher than the value E calculated according to Colby, a synergistic effect is present.
(§4) On field test sites, natural weed infestation or seeded weeds were treated post-emergence of the weeds.
(§5) In the field trials, the weeds were treated as indicated below.
(§6) In the following experiments, the herbicidal activity for the individual herbicidal compositions (solo and mixture applications) was assessed at the indicated days after treatment (DAT). The assessments for the damage on undesired weeds caused by the composition was carried out using a scale from 0 to 100%, compared to the untreated control plants. Here, 0 means no damage and 100 means complete destruction of the plants.
(§7) Post-Emergence Application of Herbicide A-1 (A-1) and Dimethenamid-P (DMTA-p; B-2) in Field Trials
(§8) Herbicide A-1 (100 g/l) and DMTA-p (720 g/l) were, together with addition of 1% MSO (methylated sed oil) as adjuvant, formulated in water as distribution medium (water volume 200 l/ha) and sprayed with commercial flat fan nozzles.

[2] = system: Zea mays (ZEAMX); experiment: as above; conditions: height 43-51 cm, 20 DAT, B-2 735 g ai/ha
Description: as §1, §2, §3, §4, §5, §6, §7, §8

[3] = system: Helanthus annuus (HELAN); experiment: Example 4 post-emergence field trial (1% MSO and AMS); conditions: height 10-20 cm, 20 DAT, A-1 12.5 g ai/ha, B-2 735 g ai/ha
Description: as §1, §2, §3, §4, §5, §6, §7
(§9) Herbicide A-1 (100 g/l) and DMTA-p (720 g/l) were, together with addition of 1% MSO (methylated sed oil) and AMS (ammonium sulfate) as adjuvant, formulated in water as distribution medium (water volume 200 l/ha) and sprayed with commercial flat fan nozzles.

[4] = system: Glycine max (GLXMA); experiment: as above; conditions: 21-24 DAT, A-1 12.5 g ai/ha, B-2 735 g ai/ha
Description: as §1, §2, §3, §4, §5, §6, §7, §9

[5] = system: Zea mays (ZEAMX); experiment: as above; conditions: 21-24 DAT, B-2 735 g ai/ha
Description: as §1, §2, §3, §4, §5, §6, §7, §9

[6] = system: Eleusine indica (ELEIN); experiment: as above; conditions: height 15-20 cm, 21-24 DAT, A-1 12.5 g ai/ha, B-2 735 g ai/ha
Description: as §1, §2, §3, §4, §5, §6, §7, §9

[7] = system: Sorghum bicolor (SORVU); experiment: as above; conditions: height 15-20 cm, 20 DAT, A-1 12.5 g ai/ha, B-2 735 g ai/ha
Description: as §1, §2, §3, §4, §5, §6, §7, §9

[8] = system: Portulaca oleracea (POROL); experiment: Example 2 post-emergence field trial (1% MSO and AMS); conditions: B-2 735 g ai/ha
Description: as §1, §2, §3, §4, §5, §6, §7, §9

[9] = system: Amaranthus palmeri (AMAPA); experiment: as above; conditions: B-2 735 g ai/ha
Description: as §1, §2, §3, §4, §5, §6, §7, §9

[10] = system: Digitaria sanguinalis (DIGSA); experiment: as above; conditions: height 2-8 cm, 18-21 DAT, A-1 25 g ai/ha, B-2 735 g ai/ha
Description: as §1, §2, §3, §4, §5, §6, §7, §9

[11] = system: Chenopodium album (CHEAL); experiment: as above; conditions: height 17-23 cm, 21-24 DAT, A-1 12.5 g ai/ha, B-2 735 g ai/ha
Description: as §1, §2, §3, §4, §5, §6, §7, §9

[12] = system: Echinochloa crus-galli (ECHCG); experiment: as above; conditions: height 7-15 cm, 18-21 DAT, B-2 735 g ai/ha
Description: as §1, §2, §3, §4, §5, §6, §7, §9

[13] = system: Amaranthus retroflexus (AMARE); experiment: as above; conditions: B-2 735 g ai/ha
Description: as §1, §2, §3, §4, §5, §6, §7, §9

[14] = system: Amaranthus tamariscinus (AMATA); experiment: as above; conditions: B-2 735 g ai/ha
Description: as §1, §2, §3, §4, §5, §6, §7, §9

[15] = system: Eleusine indica (ELEIN); experiment: as above; conditions: B-2 735 g ai/ha
Description: as §1, §2, §3, §4, §5, §6, §7, §9

[16] = system: Abutilon theophrasti (ABUTH); experiment: as above; conditions: height 10-20 cm, 21-24 DAT, A-1 12.5 g ai/ha, B-2 735 g ai/ha
Description: as §1, §2, §3, §4, §5, §6, §7, §9

[17] = system: Setaria viridis (SETVI); experiment: Example 1 post-emergence field trial (1% MSO); conditions: height 7-13 cm, 20-21 DAT, A-1 20 g ai/ha, B-2 735 g ai/ha
Description: as §1, §2, §3, §4, §5, §6, §7, §8

[18] = system: Setaria faberi (SETFA); experiment: Example 1 post-emergence field trial (1% MSO); conditions: height 7-13 cm, 20-21 DAT, A-1 20 g ai/ha, B-2 735 g ai/ha
Description: as §1, §2, §3, §4, §5, §6, §7, §8

[19] = system: Helanthus annuus (HELAN); experiment: Example 1 post-emergence field trial (1% MSO); conditions: height 20-25 cm, 20-21 DAT, A-1 20 g ai/ha, B-2 735 g ai/ha
Description: as §1, §2, §3, §4, §5, §6, §7, §8

[20] = system: Amaranthus palmeri (AMAPA); experiment: Example 1 post-emergence field trial (1% MSO); conditions: 20-21 DAT, B-2 735 g ai/ha
Description: as §1, §2, §3, §4, §5, §6, §7, §8

[21] = system: Digitaria sanguinalis (DIGSA); experiment: Example 1 post-emergence field trial (1% MSO); conditions: height 2-13 cm, 20-21 DAT, A-1 20 g ai/ha, B-2 735 g ai/ha
Description: as §1, §2, §3, §4, §5, §6, §7, §8

[22] = system: Echinochloa crus-galli (ECHCG); experiment: Example 1 post-emergence field trial (1% MSO); conditions: height 10-15 cm, 20-21 DAT, B-2 735 g ai/ha
Description: as §1, §2, §3, §4, §5, §6, §7, §8

[23] = system: Amaranthus tamariscinus (AMATA); experiment: Example 1 post-emergence field trial (1% MSO); conditions: height 20-25 cm, 20-21 DAT, A-1 20 g ai/ha, B-2 735 g ai/ha
Description: as §1, §2, §3, §4, §5, §6, §7, §8

[24] = system: Sorghum bicolor (SORVU); experiment: Example 1 post-emergence field trial (1% MSO); conditions: height 25-30 cm, 20-21 DAT, A-1 30 g ai/ha, B-2 735 g ai/ha
Description: as §1, §2, §3, §4, §5, §6, §7, §8

[25] = height 2-13 cm, 18-21 DAT, A-1 25 g ai/ha
[26] = height 10-20 cm, 21-24 DAT, A-1 12.5 g ai/ha
[27] = height 10-20 cm, 21-24 DAT, A-1 25 g ai/ha
[28] = height 7-15 cm, 18-21 DAT, A-1 12.5 g ai/ha
[29] = height 7-15 cm, 18-21 DAT, A-1 25 g ai/ha
[30] = height 20-25 cm, 21-24 DAT, A-1 12.5 g ai/ha
[31] = height 17-28 cm, 21-24 DAT, A-1 12.5 g ai/ha
[32] = height 5-13 cm, 18-21 DAT, A-1 12.5 g ai/ha
[33] = height 7-10 cm, 18-21 DAT, A-1 12.5 g ai/ha
[34] = height 7-10 cm, 18-21 DAT, A-1 25 g ai/ha
[35] = height 15-20 cm, 21-24 DAT, A-1 25 g ai/ha
[36] = height 10-18 cm, A-1 20 g ai/ha
[37] = height 10-18 cm, A-1 30 g ai/ha

CCOC(=O)COc1ccccc1Oc1nc(-n2c(=O)cc(C(F)(F)F)n(C)c2=O)c(F)cc1Cl [A-1, ethyl 2-[2-[[3-chloro-5-fluoro-6-[3-methyl-2,6-dioxo-4-(trifluoromethyl)pyrimidin-1-yl]-2-pyridyl]oxy]phenoxy]acetate]
% herbicidal activity [1]: 98% | % herbicidal activity ([2]; A-1 20 g ai/ha): 72% | % herbicidal activity ([2]; A-1 30 g ai/ha): 88% | % herbicidal activity [3]: 93% | % herbicidal activity [4]: 90% | % herbicidal activity ([5]; A-1 12.5 g ai/ha): 67% | % herbicidal activity ([5]; A-1 25 g ai/ha): 83% | % herbicidal activity [6]: 27% | % herbicidal activity [7]: 87% | % herbicidal activity [8, 25]: 93% | % herbicidal activity [8, 26]: 80% | % herbicidal activity [8, 27]: 87% | % herbicidal activity [9, 28]: 42% | % herbicidal activity [9, 29]: 64% | % herbicidal activity [9, 30]: 74% | % herbicidal activity [10]: 97% | % herbicidal activity [11]: 77% | % herbicidal activity ([12]; A-1 12.5 g ai/ha): 82% | % herbicidal activity ([12]; A-1 25 g ai/ha): 85% | % herbicidal activity [13, 29]: 85% | % herbicidal activity [13, 27]: 82% | % herbicidal activity [13, 31]: 67% | % herbicidal activity [14, 32]: 90% | % herbicidal activity [14, 29]: 85% | % herbicidal activity [14, 27]: 77% | % herbicidal activity [14, 31]: 67% | % herbicidal activity [15, 33]: 18% | % herbicidal activity [15, 34]: 78% | % herbicidal activity [15, 35]: 55% | % herbicidal activity [16]: 98% | % herbicidal activity [17]: 97% | % herbicidal activity [18]: 97% | % herbicidal activity [19]: 99% | % herbicidal activity ([20]; height 2-12 cm, A-1 20 g ai/ha): 99% | % herbicidal activity ([20]; height 2-12 cm, A-1 30 g ai/ha): 99% | % herbicidal activity [20, 36]: 77% | % herbicidal activity [20, 37]: 80% | % herbicidal activity [21]: 97% | % herbicidal activity ([22]; A-1 20 g ai/ha): 77% | % herbicidal activity ([22]; A-1 30 g ai/ha): 80% | % herbicidal activity [23]: 70% | % herbicidal activity [24]: 93%

COC[C@H](C)N(C(=O)CCl)c1c(C)csc1C [B-2, dimethenamid-P]
% herbicidal activity [1]: 0% | % herbicidal activity ([2]; A-1 20 g ai/ha): 0% | % herbicidal activity ([2]; A-1 30 g ai/ha): 0% | % herbicidal activity [3]: 0% | % herbicidal activity [4]: 0% | % herbicidal activity ([5]; A-1 12.5 g ai/ha): 0% | % herbicidal activity ([5]; A-1 25 g ai/ha): 0% | % herbicidal activity [6]: 0% | % herbicidal activity [7]: 0% | % herbicidal activity [8, 25]: 7% | % herbicidal activity [8, 26]: 28% | % herbicidal activity [8, 27]: 28% | % herbicidal activity [9, 28]: 0% | % herbicidal activity [9, 29]: 0% | % herbicidal activity [9, 30]: 0% | % herbicidal activity [10]: 5% | % herbicidal activity [11]: 0% | % herbicidal activity ([12]; A-1 12.5 g ai/ha): 0% | % herbicidal activity ([12]; A-1 25 g ai/ha): 0% | % herbicidal activity [13, 29]: 0% | % herbicidal activity [13, 27]: 47% | % herbicidal activity [13, 31]: 0% | % herbicidal activity [14, 32]: 15% | % herbicidal activity [14, 29]: 0% | % herbicidal activity [14, 27]: 47% | % herbicidal activity [14, 31]: 0% | % herbicidal activity [15, 33]: 0% | % herbicidal activity [15, 34]: 0% | % herbicidal activity [15, 35]: 0% | % herbicidal activity [16]: 35% | % herbicidal activity [17]: 0% | % herbicidal activity [18]: 0% | % herbicidal activity [19]: 0% | % herbicidal activity ([20]; height 2-12 cm, A-1 20 g ai/ha): 37% | % herbicidal activity ([20]; height 2-12 cm, A-1 30 g ai/ha): 37% | % herbicidal activity [20, 36]: 0% | % herbicidal activity [20, 37]: 0% | % herbicidal activity [21]: 0% | % herbicidal activity ([22]; A-1 20 g ai/ha): 0% | % herbicidal activity ([22]; A-1 30 g ai/ha): 0% | % herbicidal activity [23]: 0% | % herbicidal activity [24]: 0%
